Measurements from patent publication US12416639B2, “Reagents and methods for detecting protein lysine lactylation” (Jingjie PTM Biolab (Hangzhou) Co., Inc, priority 2018, dated 2025).

Legend:
MCF-7 cells [1] = assay: Histone Kla levels in MCF-7 cells by immunoblot (pan anti-Kla); assay type: cell-based, human
Experimental: (§1) Intracellular lactate (a and d) and histone Kla levels (b and c) were measured from MCF-7 cells cultured in different glucose concentrations or different 2-DG concentrations in the presence of 25 mM glucose for 24 hours. Lactate was measured by a lactate colorimetric kit; n=3 biological replicates; statistical significance was determined using one-way ANOVA followed by Sidak's multiple comparisons test. Immunoblots was carried out using acid-extracted histone samples. The pan anti-Kla and anti-Kac immunoblots indicate molecular weights between 10 kD and 15 kD. e, Regulation of glycolysis and lactate production by diverse metabolic modulators. f, Intracellular lactate levels were measured in MCF-7 cells treated with indicated glycolysis modulators for 24 hours. N=3 biological replicates; statistical significance was determined using one-way ANOVA followed by Dunnett's multiple comparisons test. g-i, Immunoblots of acid extracted histones (Rotenone and DCA) or whole cell lysates (Oxamate) from MCF-7 cells in response to different glycolysis modulators. j, Intracellular lactate levels were measured in MCF-7 cells in response to hypoxia. N=4 biological replicates; statistical significance was determined using unpaired t test (Two-tailed). k, Immunoblots of acid extracted histones from MCF-7 cells under hypoxia (1% oxygen) for indicated time points. a, d, f, j, Graphs show mean with s.e.m. b, c, g, h, i, k, Data represent three independent experiments. […]

MCF-7 cells [2] = assay: Intracellular lactate in MCF-7 cells (lactate colorimetric kit); assay type: cell-based, human; conditions: 24 hours
Experimental: as §1

MCF-7 cells [3] = assay: Hypoxia-induced lactate production and histone Kla; assay type: cell-based, human; conditions: hypoxia (1% oxygen); cell line not given
Experimental: as §1, with “hypoxia.” for “hypoxia. N=4 biological replicates; statistical significance was determined using unpaired t test (Two-tailed). k, Immunoblots of acid extracted histones from MCF-7 cells under hypoxia (1% oxygen) for indicated time points. a, d, f, j, Graphs show mean with s.e.m. b, c, g, h, i, k, Data represent three independent experiments.”

MCF-7 cells [4] = assay: U-13C6 glucose labeling followed by MS/MS of histone Kla and Kac in MCF-7 cells; assay type: cell-based, human
Experimental: The peptide samples were loaded onto a home-made capillary column (10 cm length×[…], 3 μm particle size, Dr. Maisch GmbH, Ammerbuch, Germany) connected to an EASY-nLC 1000 system (Thermo Fisher Scientific, Waltham, MA). Peptides were separated and eluted with a gradient of 2% to 90% HPLC buffer B (0.1% formic acid in acetonitrile, v/v) in buffer A (0.1% formic acid in water, v/v) at a flow rate of 200 nL/min over 60 min (34 min for coelution studies). The eluted peptides were then ionized and analyzed by a Q-Exactive mass spectrometer (Thermo Fisher Scientific, Waltham, MA). Full MS was acquired in the Orbitrap mass analyzer over the range m/z 300-1400 with a resolution of 70,000 at m/z 200. The 12 most intense ions with charge ≥2 were fragmented with normalized collision energy of 27 and tandem mass spectra were acquired with a mass resolution of 17500 at m/z 200.
MCF-7 cells were cultured in DMEM high glucose media plus 10% FBS. To be labeled by isotopic lactate, cells were treated with 10 mM of ^13C3 sodium L-lactate for 24 hours. To be labeled by isotopic glucose, cells were switched to DMEM No-Glucose media (Gibco) for 24 hours, followed by supplementation with 25 mM of U-^13C6 D-glucose and continued culturing for three passages. Histones were extracted, digested with trypsin, immunoprecipitated using a pan anti-Kla antibody, and analyzed by HPLC/MS/MS as described above.

[5] = molecular target: T1, recombinant chromatin (p53- and p300-dependent) (Homo sapiens, UniProt Q09472); assay: Cell-free recombinant chromatin-templated histone modification and transcription assay; assay type: biochemical; conditions: acetyl-CoA replaced by L-lactyl-CoA
T1 construct: made in house
T1 sequence (Q09472 whole entry): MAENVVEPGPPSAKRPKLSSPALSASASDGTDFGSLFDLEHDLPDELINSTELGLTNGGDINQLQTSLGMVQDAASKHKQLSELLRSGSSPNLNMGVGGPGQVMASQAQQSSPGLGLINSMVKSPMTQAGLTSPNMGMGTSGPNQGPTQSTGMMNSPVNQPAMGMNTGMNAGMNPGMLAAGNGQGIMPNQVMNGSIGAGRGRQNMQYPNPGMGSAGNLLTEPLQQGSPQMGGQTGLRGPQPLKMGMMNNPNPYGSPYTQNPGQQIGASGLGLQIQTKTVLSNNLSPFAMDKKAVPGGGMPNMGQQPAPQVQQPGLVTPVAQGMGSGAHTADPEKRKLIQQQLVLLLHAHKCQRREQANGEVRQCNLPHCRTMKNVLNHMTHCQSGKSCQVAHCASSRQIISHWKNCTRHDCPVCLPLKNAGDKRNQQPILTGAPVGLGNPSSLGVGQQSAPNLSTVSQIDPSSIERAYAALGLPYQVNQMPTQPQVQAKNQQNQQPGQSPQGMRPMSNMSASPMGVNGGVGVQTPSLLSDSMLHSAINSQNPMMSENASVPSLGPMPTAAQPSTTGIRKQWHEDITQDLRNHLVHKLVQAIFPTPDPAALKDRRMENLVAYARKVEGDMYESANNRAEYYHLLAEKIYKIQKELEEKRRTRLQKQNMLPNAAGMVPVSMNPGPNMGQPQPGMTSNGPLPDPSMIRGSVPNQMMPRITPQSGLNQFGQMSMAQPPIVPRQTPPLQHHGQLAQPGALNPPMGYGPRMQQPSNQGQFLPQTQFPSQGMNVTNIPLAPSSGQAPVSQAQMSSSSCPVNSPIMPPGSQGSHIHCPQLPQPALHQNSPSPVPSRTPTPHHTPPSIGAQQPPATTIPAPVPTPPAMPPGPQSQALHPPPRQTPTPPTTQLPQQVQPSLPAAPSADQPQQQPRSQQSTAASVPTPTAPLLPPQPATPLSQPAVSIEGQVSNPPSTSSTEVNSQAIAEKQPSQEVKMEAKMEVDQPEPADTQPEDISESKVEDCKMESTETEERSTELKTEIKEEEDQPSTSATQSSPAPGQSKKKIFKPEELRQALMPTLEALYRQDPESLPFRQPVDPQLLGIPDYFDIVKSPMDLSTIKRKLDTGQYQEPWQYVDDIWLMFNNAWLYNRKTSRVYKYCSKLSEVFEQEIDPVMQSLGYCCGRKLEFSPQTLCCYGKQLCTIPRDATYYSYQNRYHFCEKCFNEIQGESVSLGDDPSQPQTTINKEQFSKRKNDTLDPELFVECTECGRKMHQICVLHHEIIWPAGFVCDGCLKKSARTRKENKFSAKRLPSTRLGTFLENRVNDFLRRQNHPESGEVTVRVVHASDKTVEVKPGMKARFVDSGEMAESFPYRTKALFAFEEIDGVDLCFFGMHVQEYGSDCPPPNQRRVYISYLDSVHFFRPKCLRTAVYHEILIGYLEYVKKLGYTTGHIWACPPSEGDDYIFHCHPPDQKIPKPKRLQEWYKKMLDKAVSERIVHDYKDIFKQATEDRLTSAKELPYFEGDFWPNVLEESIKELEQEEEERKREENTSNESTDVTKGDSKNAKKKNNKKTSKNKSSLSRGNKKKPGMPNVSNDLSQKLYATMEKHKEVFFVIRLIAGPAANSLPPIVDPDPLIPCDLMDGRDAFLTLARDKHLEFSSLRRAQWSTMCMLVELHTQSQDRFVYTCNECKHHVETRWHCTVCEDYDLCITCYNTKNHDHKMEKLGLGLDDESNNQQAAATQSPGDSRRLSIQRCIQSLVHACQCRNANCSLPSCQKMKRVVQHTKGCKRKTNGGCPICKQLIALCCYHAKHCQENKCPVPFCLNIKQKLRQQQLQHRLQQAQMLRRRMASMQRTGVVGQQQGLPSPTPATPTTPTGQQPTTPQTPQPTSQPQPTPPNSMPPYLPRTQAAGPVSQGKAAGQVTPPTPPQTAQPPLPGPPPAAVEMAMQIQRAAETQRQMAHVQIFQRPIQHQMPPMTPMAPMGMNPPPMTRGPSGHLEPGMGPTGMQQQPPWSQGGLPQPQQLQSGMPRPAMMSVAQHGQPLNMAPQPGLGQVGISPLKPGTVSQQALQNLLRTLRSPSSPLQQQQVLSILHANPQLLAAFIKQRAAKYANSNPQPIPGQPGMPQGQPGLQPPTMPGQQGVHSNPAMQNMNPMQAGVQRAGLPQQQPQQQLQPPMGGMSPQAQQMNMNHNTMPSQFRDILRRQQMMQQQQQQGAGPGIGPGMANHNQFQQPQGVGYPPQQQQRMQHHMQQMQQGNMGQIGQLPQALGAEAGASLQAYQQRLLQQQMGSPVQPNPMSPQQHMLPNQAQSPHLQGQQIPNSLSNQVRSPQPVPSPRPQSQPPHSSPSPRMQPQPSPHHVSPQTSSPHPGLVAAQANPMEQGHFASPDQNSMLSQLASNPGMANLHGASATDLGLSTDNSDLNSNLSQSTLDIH
Experimental: To examine the potential activity of p300 as a histone Kla writer in cells, we over-expressed p300 in HEK293T cells and observed a modest increase in histone Kla levels. In contrast, p300 deletion in HCT116 and HEK293T cells decreased histone Kla levels.
Purification of recombinant proteins and chromatin assembly were performed as previously described (Tang et al., Cell 154, 297-310, doi:10.1016/j.cell.2013.06.027 (2013)). The chromatin-templated histone modification and transcription assays were as described previously (Tang et al., Cell 154, 297-310, doi:10.1016/j.cell.2013.06.027 (2013)), except that lactyl-CoA was used in place of acetyl-CoA and [α-32P] CTP was used in place of [α-32P]-UTP. The H3KR, H4KR, H2AKR, and H2BKR histone mutants were the same as previously described (Tang et al., Cell 154, 297-310, doi:10.1016/j.cell.2013.06.027 (2013)). Histone modifications were monitored by immunoblot and transcription products were monitored by autoradiography as described (Tang et al., Cell 154, 297-310, doi:10.1016/j.cell.2013.06.027 (2013)).

BMDM cells = assay: M1 polarization (LPS+IFNγ) of BMDM cells: lactate, histone Kla, gene expression, ChIP-qPCR; assay type: cell-based, mouse
Experimental: Intracellular lactate levels were measured using a lactate colorimetric kit (a) and global histone Kla levels were measured by immunoblots (b) 24 h-post M1 polarization. c, Gene expression were analyzed by RT-qPCR at indicated time points after M1 polarization. a-c, N=3 biological replicates. d, H3K18la occupancy was analyzed by ChIP-qPCR 24 h-post M1 polarization. Data represent three technical replicates from pooled samples. e-h, Exogeneous lactic acid (25 mM) was added to BMDM cells 4 h post-M1 polarization (LPS+IFNγ), and cells were collected at indicated time points post-M1 polarization for intracellular lactate measurement (e), histone Kla immunoblot analysis (f), gene expression analysis (g) and H3K18la occupancy analysis by ChIP-qPCR (h). e, N=3 biological replicates, f, Data represent three independent experiments. g, RPKM: Reads Per Kilobase of transcript per Million mapped reads (RPKM). N=4 biological replicates. h, Data represent three technical replicates from pooled samples. a, c, d, e, g, h, Graphs show mean with s.e.m; statistical significance was determined using Multiple t tests corrected using Holm-Sidak method (a, c, e, g).
All animal use and experiments performed were approved by Institutional Animal Care and Use Committee (ACUP #72209) at the University of Chicago. Ldha^fl/fl mice (Jackson laboratory, 030112) and LysMcre mice (Jackson laboratory, 004781) were used to generate LysMcre^+/−Ldha^fl/fl and littermate control LysMcre^−/− Ldha^fl/fl mice. The following primers were used for genotyping: Ldha forward: […] (SEQ ID NO: 88) and Ldha reverse: […] (SEQ ID NO: 89). LysMcre: […] (SEQ ID NO: 90), LysM Common: […] (SEQ ID NO: 91) and LysM WT: […] (SEQ ID NO: 92). Macrophages were derived from bone marrow of 8-week male C57BL/6 mice following the published procedure. To induce an M1 or M2 phenotype, BMDM cells were stimulated with 5 ng/ml of LPS and 12 ng/ml of IFNγ or 20 ng/ml of interleukin 4, for 24 hours or the indicated time. To infect BMDM cells with bacteria, overnight cultures of E. coli, A. baumannii, or P. aeruginosa were diluted in RPMI-1640 and added to BMDM cells in 6-well plates at 2 and 20 multiplicity of infection. A control plate was either infected with paraformaldehyde-killed bacteria or treated with 5 ng/mL lipopolysaccharide (LPS) in the absence of bacteria. The plates were centrifuged at 2170 rpm for 30 min to promote infection, followed by a 30 min incubation in a humidified incubator at 37° C. under 5% CO2. To kill extracellular bacteria, the medium overlying the confluent cell monolayer was replaced with fresh media containing gentamicin at 100 μg/mL and the plates were further incubated for 1 h. Following incubation, media were removed from infected cells and replaced with fresh media containing 25 μg/mL of gentamicin. For consistency, LPS-treated cells and cells infected with dead bacteria were also treated with gentamicin. Cells were cultured for 24 h before lysis. Allocation of BMDM cells into different treated groups were randomized and not blinded.
Total RNA was extracted from BMDM cells activated as indicated using a RNeasy Plus Mini Kit (74134, Qiagen, Hilden, Germany). Two to four micrograms of total RNA were used as starting material to prepare libraries using Illumina TruSeq Stranded mRNA Library Prep Kit Set A (RS-122-2101, Illumina, San Diego, CA). The libraries' size was selected by using the Agencourt AMPure XP beads (A63882, Beckman Coulter, Brea, CA), with average size of 400 bp. The libraries were sequenced using Illumina HiSeq 4000 (pair end 50 bp).
Native ChIP was carried out following the published protocol (Cuddapah et al., Cold Spring Harb Protoc 2009, pdb prot5237, doi:10.1101/pdb.prot5237 (2009)) with spiked-in for normalization purpose. Spike-in was carried out according to vendor protocols (#61686, Active motif, Carlsbad, CA). […]

BMDMs = assay: U-13C6 glucose labeling of histone Kla and Kac in BMDMs during M1 polarization; assay type: cell-based, mouse
Text: All animal use and experiments performed were approved by Institutional Animal Care and Use Committee (ACUP #72209) at the University of Chicago. Ldha^fl/fl mice (Jackson laboratory, 030112) and LysMcre mice (Jackson laboratory, 004781) were used to generate LysMcre^+/−Ldha^fl/fl and littermate control LysMcre^−/− Ldha^fl/fl mice. The following primers were used for genotyping: Ldha forward: […] (SEQ ID NO: 88) and Ldha reverse: […] (SEQ ID NO: 89). LysMcre: […] (SEQ ID NO: 90), LysM Common: […] (SEQ ID NO: 91) and LysM WT: […] (SEQ ID NO: 92). Macrophages were derived from bone marrow of 8-week male C57BL/6 mice following the published procedure. To induce an M1 or M2 phenotype, BMDM cells were stimulated with 5 ng/ml of LPS and 12 ng/ml of IFNγ or 20 ng/ml of interleukin 4, for 24 hours or the indicated time. To infect BMDM cells with bacteria, overnight cultures of E. coli, A. baumannii, or P. aeruginosa were diluted in RPMI-1640 and added to BMDM cells in 6-well plates at 2 and 20 multiplicity of infection. […]
The peptide samples were loaded onto a home-made capillary column (10 cm length×[…], 3 μm particle size, Dr. Maisch GmbH, Ammerbuch, Germany) connected to an EASY-nLC 1000 system (Thermo Fisher Scientific, Waltham, MA). […] The eluted peptides were then ionized and analyzed by a Q-Exactive mass spectrometer (Thermo Fisher Scientific, Waltham, MA). […]

[6] = M1 polarization, exogenous lactate
[7] = exogenous lactic acid 25 mM added 4 h post-M1 polarization

With `O=CC[C@@H](O)[C@H](O)[C@H](O)CO` [2-DG, 2-deoxy-D-glucose] the “histone Kla levels” value (MCF-7 cells [1]) was “decreased” and the “intracellular lactate levels / lactate production” value (MCF-7 cells [2]) was “decreased”.

With `O=C([O-])C(Cl)Cl.[Na+]` [DCA, Sodium dichloroacetate] the “induction of histone Kla by hypoxia” value (MCF-7 cells [3]) was “attenuated”, the “induction of lactate production by hypoxia” value (MCF-7 cells [3]) was “attenuated” and the “histone Kla levels” value (MCF-7 cells [1]) was “lowered”. For the same molecule, the “incorporation of 13C into histone Kac” value (MCF-7 cells [4]) was “but not Kac was decreased”, the “incorporation of 13C into histone Kla” value (MCF-7 cells [4]) was “decreased” and the “intracellular lactate levels / lactate production” value (MCF-7 cells [2]) was “decreased”.

For `C[C@H](O)C(=O)SCCNC(=O)CCNC(=O)[C@H](O)C(C)(C)COP(=O)(O)OP(=O)(O)OC[C@H]1O[C@@H](n2cnc3c(N)ncnc32)[C@H](O)[C@@H]1OP(=O)(O)O` [L-lactyl-CoA], the transcription ([5]; autoradiography) was “a corresponding effect on transcription” and the “H3 and H4 lactylation” value ([5]; immunoblot) was “robust p53-dependent, p300-mediated H3 and H4 lactylation”.

In the case of `C[C@H](O)C(=O)O` [lactate, L-(+)-lactic acid], the “histone Kla levels” value (MCF-7 cells [1]) is reported as “elevated in a dose-dependent fashion”, the “early pro-inflammatory gene expression” value (BMDM cells; [6]) is reported as “did not affect” and the “expression of other M2-like genes, such as Vegfa” value (BMDM cells; [6]) is reported as “enhanced”. For the same molecule, the Arg1 expression (BMDM cells; [7]) was “induced”, the intracellular lactate (BMDM cells; [7]) was “increased” and the “histone Kla levels” value (BMDM cells; exogenous lactic acid 25 mM added 4 h post-M1 polarization, immunoblot) was “increased”. For the same molecule, the “Kla levels at the Arg1 promoter” value (BMDM cells; exogenous lactic acid 25 mM, H3K18la ChIP-qPCR) was “induced”.

With `C=C(C)[C@H]1Cc2c(ccc3c2O[C@@H]2COc4cc(OC)c(OC)cc4[C@@H]2C3=O)O1` [rotenone] the “histone Kla levels” value (MCF-7 cells [1]) was “increased” and the “intracellular lactate levels / lactate production” value (MCF-7 cells [2]) was “increased”.

For GNE-140, the “13C incorporation into histone Kla” value (BMDMs) was “reduced”.
